In brackets after ≈: the same amount, converted by molar mass.
What was measured:
Hemophilus influenzae = experiment: agar dilution technique (MIC); assay type: cell-based; details: Haemophilus influenzae
Staphylococcus aureus = experiment: agar dilution technique (MIC); assay type: cell-based
Streptococcus pyogenes = experiment: agar dilution technique (MIC); assay type: cell-based
Salmonella pullorum 9-27 = experiment: in vitro tube dilution test (MIC); assay type: cell-based; details: Salmonella enterica; Salmonella pullorum 9-27, tube dilution
H. meleagridis = experiment: Blackhead in poultry, turkeys; assay type: in vivo
Experimental: One- to three-week-old chicks and turkey poults were obtained from homogeneous source flocks and allocated into treatment groups. Some groups were held as infected, untreated controls, and other groups were treated with 3-nitropyrazoles by administering the compounds in the birds' feed. Various concentrations of the pyrazoles were administered to determine the least concentration which protected the birds. A few days after the administration of medicated feed began, all of the birds were challenged by rectally administering a suspension of at least 5,000 H. meleagridis protozoa per chick. The challenge organisms had been originally obtained from infected chickens, and were grown in vitro to provide a supply of organisms for testing.
The birds were held for about seven days after the challenge was administered, during which time the administration of pyrazole-medicated feed was continued. Then all of the chicks, including the untreated, infected controls, were sacrificed and necropsied. The cecum and the liver of each bird were examined for characteristic H. meleagridis lesions.
For each compound, the lowest feed concentration which gave an active response is indicated. While feed consumption data were not taken during the tests, the birds ate at such a rate that a feed concentration of 0.02 percent is equivalent to a treatment rate of about 10 mg./kg./day.

Vibrio coli = experiment: in vitro tube dilution test (MIC); assay type: cell-based; details: Campylobacter coli
[1] = test system: Streptococcus sp. (group E); experiment: in vitro tube dilution test (MIC); assay type: cell-based
Hemophilus somnus = experiment: in vitro tube dilution test (MIC); assay type: cell-based
Salmonella sp. = experiment: in vitro tube dilution test (MIC); assay type: cell-based
Text: Our compound, 1-(2-hydroxyethyl)-3-nitro-4-pyrazolecarboxamide, has been extensively tested in vitro to determine the range of microorganisms against which it is active. The table of data below reports the minimum inhibitory concentration (MIC) at which the compound is effective in controlling a variety of microorganisms in a standard tube dilution test system. The MIC is reported as micrograms of compound per milliliter.

Leptospira (5 serotypes) = experiment: in vitro tube dilution test (MIC); assay type: cell-based
Erysipelas insidiosa = experiment: in vitro tube dilution test (MIC); assay type: cell-based
Escherichia coli = experiment: in vitro tube dilution test (MIC); assay type: cell-based; details: tube dilution, read-out: MIC
Outline: (§1)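 Standard tube dilution test; MIC reported as micrograms of compound per milliliter.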

Mycoplasma synoviae = experiment: in vitro tube dilution test (MIC); assay type: cell-based; details: Mycoplasmopsis synoviae, Mycoplasma synoviae
Outline: as §1

Mycoplasma gallisepticum = experiment: in vitro tube dilution test (MIC); assay type: cell-based; details: Mycoplasmoides gallisepticum; Mycoplasma galliseptioum, tube dilution; read-out: MIC
Outline: as §1

Mima polymorpha = experiment: agar dilution technique (MIC); assay type: cell-based
Mycoplasma hyosynoviae = experiment: in vitro tube dilution test (MIC); assay type: cell-based
Citrobacter freundii = experiment: agar dilution technique (MIC); assay type: cell-based
E. coli = experiment: Tests in mice, E. coli infection; assay type: in vivo
Experimental: Groups of laboratory mice were inoculatd with E. coli or with Streptococcus pyogenes. The 3-nitropyrazoles were administered in two different modes to the infected mice. In one group of tests, the compound was administered in two subcutaneous doses of 83 mg./kg. each, given 1 and 5 hours after the mice were inoculated with the organism. The mice were observed, and the results reported below as the number of days the treated mice survived the challenge.
In the other group of tests, the dose of each compound which allowed 50 percent of the treated mice to survive the challenge was determined. Again, the compound was administered in subcutane divided doses, 1 and 5 hours post-inoculation.

[2] = test system: Enterobacter cloacae and aerogenes; experiment: agar dilution technique (MIC); assay type: cell-based
[3] = Growth promotion in swine; assay type: in vivo; details: 300 gm./ton; 28 days
Text: The same 3-nitropyrazole tested above was used in a growth promotion test in swine. The pigs weighed 25-30 lbs. when the test began, and were housed and fed according to good commercial practice for 28 days. The pigs in the treated group received feed containing 300 gm. per ton of the 3-nitropyrazole compound.

P. multocida = experiment: Mice infected with P. multocida, compound in drinking water; assay type: in vivo; details: 7 days
Experimental: Some of the 3-nitropyrazoles were also administered to mice infected with P. multocida. Tests were conducted in which the pyrazoles were administered both by injection and in the drinking water.
The table below reports results of tests in which the compound was administered in the water. Groups of 10 standardized white mice were segregated, and each mouse was infected by injecting a broth culture of P. multocida subcutaneously. The administration of the test compounds was begun at the same time the mice were infected by adding a known amount of the test compound to the drinking water of the mice. One group of infected control mice received no treatment. The mice were observed, and the test was concluded at the end of 7 days. The number of mice in each group which survived the P. multocida infection was recorded.

## NC(=O)c1cn(CCO)nc1[N+](=O)[O-] [Compound 32, 1-(2-hydroxyethyl)-3-nitro-4-pyrazolecarboxamide]
Hemophilus influenzae
  MIC: 4 µg/mL (≈ 20 µM)
Staphylococcus aureus
  MIC: 8 to 16 µg/mL (≈ 40 to 79.9 µM)
Streptococcus pyogenes
  MIC: 32 µg/mL (≈ 160 µM)
Salmonella pullorum 9-27
  MIC: < 1.56 µg/mL
H. meleagridis
  Active Level (lowest feed concentration which gave an active response): .02%
Vibrio coli
  MIC: 6.25 µg/mL (≈ 31.2 µM)
[1]
  MIC: 1.56 µg/mL (≈ 7.79 µM)
Hemophilus somnus
  MIC: > 100 µg/mL
Salmonella sp.
  MIC: 3.12 µg/mL (≈ 15.6 µM)
Leptospira (5 serotypes)
  MIC: > 100 µg/mL
Erysipelas insidiosa
  MIC: > 50 µg/mL
Escherichia coli
  MIC: 3.12 µg/mL (≈ 15.6 µM)
Mycoplasma synoviae
  MIC: 50 µg/mL (≈ 250 µM)
Mycoplasma gallisepticum
  MIC: 0.78 µg/mL (≈ 3.9 µM)
Mima polymorpha
  MIC: 2 µg/mL (≈ 9.99 µM)
Mycoplasma hyosynoviae
  MIC: 50 µg/mL (≈ 250 µM)
Citrobacter freundii
  MIC: 8 µg/mL (≈ 40 µM)
E. coli; Escherichia coli, sc, subcutaneous, 1 and 5 hours post-inoculation
  ED50: 19.6 mg/kg
E. coli; two subcutaneous doses of 83 mg./kg., 1 and 5 hours
  Days Survived: 7.0 days
[2]
  MIC: 32 µg/mL (≈ 160 µM)
[3]
  Average Daily Feed Consumption: 2.00 lbs.
  Average Daily Gain: 1.01 lbs.
  Feed/Gain: 1.96
P. multocida; 0.1 gm./gal. in drinking water
  Survival: 8/10
P. multocida; 0.2 gm./gal. in drinking water
  Survival: 10/10

From patent US4145554A, “3-Nitropyrazole derivatives” (Eli Lilly and Company, priority 1977, dated 1979)
